According to patent US20190054054A1, “Methods reducing or preventing oxidation of high density lipoprotein (HDL)” (Amarin Pharmaceuticals Ireland Limited, priority 2017, published 2019):

Assays:
human sdLDL = assay: Copper-induced sdLDL oxidation, TBARS (Example 7); assay type: biochemical
Procedure: (§1) An experiment to study the antioxidant effect of EPA in LDL and small dense […] performed. […] Fenofibrate, gemfibrozil, and niacin were purchased from Sigma-Aldrich. […] Vitamin E was also incubated with sample aliquots as a positive control.

[1] = Glucose-induced membrane lipid peroxidation (LOOH, CHOD-iodide assay) in DLPC/cholesterol vesicles (Examples 4 and 5); assay type: biochemical; conditions: each at 1.0 μM; glucose 200 mg/dL; 96 hours
Procedure: Vitamin E (α-tocopherol) was also purchased from Sigma-Aldrich and prepared in ethanol at 1.0 mM (e=[…] at 294 nm) just prior to experimental use. […] All test compounds were further diluted in ethanol or aqueous buffer as needed. Glucose was prepared in saline buffer (0.5 mM HEPES, 154 mM NaCl, pH 7.3) at 11.0 mM (200 mg/dL). CHOD-iodide color reagent (stock) was prepared, with slight modification, as described by from El-Saadani et al. (J. […] Samples were shell-dried under nitrogen gas and placed under vacuum for 1 h to remove residual solvent. […] Lipid suspensions were then vortexed for 3 min at ambient temperature to form MLVs. All MLV samples were subjected to time-dependent autoxidation by incubating at 37° C. in an uncovered, shaking water bath. This method allows lipid peroxidation to occur gradually without requiring the use of exogenous initiators. Small aliquots (5-100 μL) of each sample were removed, immediately following MLV preparation (0 hour) and after exposing samples to oxidative conditions for 72 or 96 hour, and combined with 1.0 mL of activated CHOD-iodide color reagent. Aliquot volume was reduced with each successive time point to ensure that spectrophotometric readings were within the optimal adsorption range. Test samples were covered and incubated in darkness at room temperature for at least 4 hr. Sample absorbances were then measured against a CHOD blank at 365 nm using a Beckman DU-640 spectrophotometer. The CHOD colorimetric assay is based on the oxidation of iodide (I^−) by lipid hydroperoxide (LOOH) to form triiodide (I3^−), the quantity of which is directly proportional to the amount of LOOH present in the lipid sample. The molar absorptivity (ε) of I3^− is 2.46×10^4 M^−1 cm^−1 at 365 nm. An experiment was conducted to compare the ability of EPA to prevent lipid hydroperoxide formation in model membranes treated with glucose to two other 20-carbon fatty acids: eicosanoic acid (“EA,” also referred to as arachidic acid, C20:0) and eicosatrienoic acid (“ETE,” C20:3, n-3). All MLV samples were subjected to time-dependent autoxidation by incubating at 37° C. in an uncovered, shaking water bath. This method allows lipid peroxidation to occur gradually without requiring the use of exogenous initiators. Small aliquots (5-100 μL) of each sample were removed, immediately following MLV preparation (0 hr) and after exposing samples to oxidative conditions for 72 or 96 hr, and combined with 1.0 mL of activated CHOD-iodide color reagent. Aliquot volume was reduced with each successive time point to ensure that spectrophotometric readings were within the optimal adsorption range. Test samples were covered and incubated in darkness at room temperature for at least 4 hr. Sample absorbances were then measured against a CHOD blank at 365 nm using a Beckman DU-640 spectrophotometer. The CHOD colorimetric assay is based on the oxidation of iodide (I^−) by lipid hydroperoxide (LOOH) to form triiodide (I3^−), the quantity of which is directly proportional to the amount of LOOH present in the lipid sample. The molar absorptivity (ε) of I3^− is 2.46×10^4 M^−1 cm^−1 at 365 nm.

human LDL = assay: Copper-induced oxidation of unfractionated LDL, TBARS (Example 7); assay type: biochemical
Procedure: as §1

[2] = tested on: rat renal glomerular endothelial cells; assay: NO and ONOO^− release ex vivo from rat glomerular endothelial cells exposed to oxLDL and high glucose (Example 13); assay type: cell-based; conditions: oxLDL 11 mg/dL and glucose 300 mg/dL; treatment 1 hr at 10.0 μM; versus vehicle
Procedure: Healthy male Wistar Kyoto (WKY) rats, aged 7-9 weeks and weighing 250±20 g, were obtained from inbred colonies (National Institutes of Health, Bethesda, Md.). Animals were housed in a controlled environment that provided food and water ad libitum prior to the study. […] Animals were sacrificed and tissue samples obtained immediately for experimentation. All procedures were conducted in accordance with standard Institutional Animal Care and Use Committee guidelines and conformed to the Guide for the Care and Use of Laboratory Animals published by the US National Institutes of Health.
EPA and DHA were purchased from Sigma-Aldrich (St. Louis, Mo.) and solubilized in ethanol to 1.0 mM under nitrogen atmosphere. […] The calcium ionophore (Cal), A23187, was purchased from Sigma-Aldrich and prepared in aqueous buffer to 1.0 mM. All test compounds were further diluted in ethanol or aqueous buffer as needed.
Venous blood from healthy normolipidemic volunteers was collected into Na-EDTA (1 mg/mL blood) vacuum tubes after a 12-hour fast. […] The LDL fraction was dialyzed for 96 hours against PBS containing 0.3 mM EDTA and stored at 4° C. until experimental use.
LDL was oxidized according to the methods of Huber et al. 16 Briefly, the purified LDL fraction was dialyzed against Tris/NaCl Buffer (50 mM Tris in 0.15 M NaCl, pH 8.0) to remove EDTA. Additional buffer was added to adjust the protein concentration to 30 mg/mL. LDL oxidation was initiated with 20 μM CuSO4 and monitored spectrophotometrically (234 nm) over a period of 24 hours until complete. The oxLDL was then dialyzed at 4° C. with 4 L Tris buffer, filtered with a 0.22 µm filter, and stored under nitrogen at 4° C.
Immediately after sacrificing the rats, kidneys were removed, cut into […] sections and transferred to a separate organ chamber containing Dulbecco's phosphate buffered saline ([…]) and […] glucose at pH 7.4.
Concurrent measurements of NO and ONOO^− were performed on intact glomerular (cortical zone) endothelial cells using tandem electrochemical nanosensors, as previously described (FIG. 45).
The NO/ONOO^− nanosensor was positioned near the surface of the endothelial cells using a computer-controlled M3301 micromanipulator (x-y-z resolution of 0.2 μm) and microscope (both from World Precision Instruments, Berlin, Germany) fitted with a CD camera. Each analyte was measured from amperograms and standard calibration curves collected under maximum current. […] After establishing a background current, maximal NO and ONOO^− release was induced by injecting Cal into the organ chamber using a nanoinjector (World Precision Instruments, Berlin Germany). Changes in current (proportional to the molar concentrations of NO or ONOO^− released) were monitored continuously immediately following Cal stimulation.
Data are presented as mean+standard deviation (SD) for (N) separate samples or experiments. Differences between groups were analyzed using the unpaired, two-tailed Student's t-test (for comparisons between only two groups) or ANOVA followed by Student-Newman-Keuls multiple comparisons post hoc analysis (for comparisons between three or more groups). Only differences with probability values less than 0.05 were considered significant.

[3] = 10 mg, administered for 12 weeks; cited from earlier work
HMG-CoA reductase = target: T1, HMG-CoA reductase (Homo sapiens, UniProt P04035); conditions: metabolized by hepatic cytochrome P450; cited from earlier work
T1 sequence (P04035 1-888): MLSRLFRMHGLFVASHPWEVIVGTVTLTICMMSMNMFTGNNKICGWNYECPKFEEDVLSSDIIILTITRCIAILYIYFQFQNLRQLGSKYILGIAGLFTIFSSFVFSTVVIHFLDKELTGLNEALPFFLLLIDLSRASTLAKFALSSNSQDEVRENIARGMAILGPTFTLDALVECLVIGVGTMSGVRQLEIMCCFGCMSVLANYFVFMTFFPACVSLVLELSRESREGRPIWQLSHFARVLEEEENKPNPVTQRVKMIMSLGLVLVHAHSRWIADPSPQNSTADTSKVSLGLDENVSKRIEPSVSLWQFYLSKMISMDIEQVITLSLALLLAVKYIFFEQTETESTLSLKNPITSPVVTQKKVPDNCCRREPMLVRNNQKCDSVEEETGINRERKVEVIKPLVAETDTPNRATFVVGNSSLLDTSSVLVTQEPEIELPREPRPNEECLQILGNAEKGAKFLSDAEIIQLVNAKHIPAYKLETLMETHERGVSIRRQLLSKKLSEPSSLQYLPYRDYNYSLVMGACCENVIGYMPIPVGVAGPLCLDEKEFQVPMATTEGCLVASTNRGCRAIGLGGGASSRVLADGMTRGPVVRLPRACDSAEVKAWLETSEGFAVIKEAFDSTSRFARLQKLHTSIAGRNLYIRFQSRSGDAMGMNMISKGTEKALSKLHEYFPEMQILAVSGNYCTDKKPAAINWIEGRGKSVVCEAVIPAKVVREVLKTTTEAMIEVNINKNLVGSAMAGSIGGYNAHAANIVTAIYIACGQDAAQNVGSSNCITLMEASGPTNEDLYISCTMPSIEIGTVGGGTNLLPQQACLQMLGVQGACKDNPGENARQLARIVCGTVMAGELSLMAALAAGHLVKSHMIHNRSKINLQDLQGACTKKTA

[4] = 80 mg for 16 weeks; 2,341 patients; cited from earlier work

Row | SMILES | inhibition of sdLDL oxidation as compared to vehicle (human sdLDL; 1.0 μM (each agent), 1 hr) [%] | inhibition of sdLDL oxidation as compared to vehicle (human sdLDL; ATM 0.5 μM, alone or in combination with EPA 1.0 μM, 1 hr) [%] | inhibition of sdLDL oxidation (human sdLDL; ATM at the highest dose, 1 hr) [%] | antioxidant effect, separate treatments [1] | effect on unfractionated LDL oxidation, dose dependence (human LDL; 1 hour) | increase in NO release [2] [%] | reduction of ONOO^− release [2] [%] | circulating levels of chlorotyrosine, nitrotyrosine, and dityrosine [3] | antioxidant activity, separately (human sdLDL; 10.0 μM, sdLDL) | inhibition of sdLDL oxidation as compared to vehicle (human sdLDL; each agent at 10.0 μM, 1 hour (FIG. 17)) [%] | share of circulating HMG-CoA reductase inhibitory activity accounted for by the active metabolites (HMG-CoA reductase) | antioxidant activity, separately (human LDL; 10.0 μM, unfractionated LDL) | levels of oxidized lipids associated with all apoB100-containing lipid particles [4]
1 | CC(C)c1c(C(=O)Nc2ccccc2O)c(-c2ccccc2)c(-c2ccc(F)cc2)n1CC[C@@H](O)C[C@@H](O)CC(=O)O [ATM, Atorvastatin ortho-(o-) hydroxy (active) metabolite] | 18±5 | 5±5 | 90±2 | separate and potent antioxidant effects | significant and dose-dependent inhibition of unfractionated LDL oxidation beginning at 1.0 μM | 205 | 25 | – | – | – | – | – | –
2 | CC(C)c1c(C(=O)Nc2ccccc2)c(-c2ccccc2)c(-c2ccc(F)cc2)n1CC[C@@H](O)C[C@@H](O)CC(=O)O [atorvastatin] | – | – | – | – | – | – | – | significantly reduce circulating levels of chlorotyrosine, nitrotyrosine, and dityrosine | did not have any significant antioxidant activity | 0.1±7 | approximately 70% | did not have any significant antioxidant activity | significant reduction in levels of oxidized lipids
